Laboratory results published in ChEMBL document CHEMBL5723035, “Affinity Biochemical Literature for EUbOPEN Chemogenomic Library” (2024).
Non-standard residues stand in square brackets, D forms with d. Residues, ends and D or L forms follow the SMILES beside them. *: point of attachment. Lys(Me,2-norbornyl) = CN(CCCC[C@H](N)C(=O)O)C1CC2CCC1C2; Benzoyl(4-tBu) = CC(C)(C)c1ccc(C(=O)*)cc1; Cbz = O=C(OCc1ccccc1)*; Boc = CC(C)(C)OC(=O)*; CH2F = FC*

What was measured:
Caspase-5 = Caspase-5 (Homo sapiens, UniProt P51878); assay: Affinity Biochemical interaction: (enzymatic assay (fluorogenic substrate cleavage)) EUB0002202a CASP5; assay type: functional; parameters: mode of action Inhibitor, recommended concentration 1 uM
[1] = target: Protein arginine N-methyltransferase 7 (Homo sapiens, UniProt Q9NVM4); assay: Affinity Biochemical interaction: (SPR) EUB0002223a PRMT7; parameters: mode of action Inhibitor, recommended concentration 1 uM
[2] = target: Protein arginine N-methyltransferase 5 (Homo sapiens, UniProt O14744); assay: Affinity Biochemical interaction: (SPR) EUB0002223a PRMT5; parameters: mode of action Inhibitor, recommended concentration 1 uM
Chain of Protein arginine N-methyltransferase 5 (O14744 whole entry): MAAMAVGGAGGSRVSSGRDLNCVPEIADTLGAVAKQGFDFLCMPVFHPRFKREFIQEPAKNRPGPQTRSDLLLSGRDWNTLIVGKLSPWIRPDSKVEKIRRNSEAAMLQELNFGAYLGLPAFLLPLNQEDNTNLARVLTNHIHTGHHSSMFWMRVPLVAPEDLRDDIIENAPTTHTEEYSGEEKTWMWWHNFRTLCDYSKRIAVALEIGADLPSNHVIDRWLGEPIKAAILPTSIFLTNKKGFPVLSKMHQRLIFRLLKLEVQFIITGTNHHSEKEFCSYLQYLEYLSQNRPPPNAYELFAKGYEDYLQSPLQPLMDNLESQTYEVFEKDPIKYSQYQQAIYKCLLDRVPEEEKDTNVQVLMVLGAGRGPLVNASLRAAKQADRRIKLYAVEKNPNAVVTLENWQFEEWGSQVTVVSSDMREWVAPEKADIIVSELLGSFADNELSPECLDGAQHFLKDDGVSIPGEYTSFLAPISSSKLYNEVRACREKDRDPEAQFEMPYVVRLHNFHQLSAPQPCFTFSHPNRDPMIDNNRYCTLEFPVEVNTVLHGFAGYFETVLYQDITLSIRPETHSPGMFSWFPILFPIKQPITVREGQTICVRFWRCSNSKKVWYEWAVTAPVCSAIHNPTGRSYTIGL

[3] = target: T1, WD repeat-containing protein 5 (Homo sapiens, UniProt P61964); assay: Affinity Biochemical interaction: (TR-FRET) EUB0002166aAD WDR5; assay type: functional; parameters: mode of action Inhibitor, recommended concentration 1 uM
[4] = target: T1, WD repeat-containing protein 5; assay: Affinity Biochemical interaction: (Fluorescence polarisation anisotropy) EUB0002166aAD WDR5; assay type: functional; parameters: mode of action Inhibitor, recommended concentration 1 uM
Caspase-7 = Caspase-7 (Homo sapiens, UniProt P55210); assay: Affinity Biochemical interaction: (enzymatic assay (fluorogenic substrate cleavage)) EUB0002196a CASP7; assay type: functional; parameters: mode of action Inhibitor, recommended concentration 1 uM
Chain of Caspase-7 (P55210 24-198 limits assumed): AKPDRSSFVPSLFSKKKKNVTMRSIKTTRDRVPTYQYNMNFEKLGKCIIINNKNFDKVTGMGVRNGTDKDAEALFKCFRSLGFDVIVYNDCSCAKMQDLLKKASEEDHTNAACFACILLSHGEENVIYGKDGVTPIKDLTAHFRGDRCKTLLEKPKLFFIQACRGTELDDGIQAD
Chain of Caspase-7 (P55210 207-303 limits assumed): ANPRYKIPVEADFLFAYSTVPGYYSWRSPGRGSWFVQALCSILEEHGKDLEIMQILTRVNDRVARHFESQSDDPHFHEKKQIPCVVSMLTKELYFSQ

Caspase-2 = Caspase-2 (Homo sapiens, UniProt P42575); assay: Affinity Biochemical interaction: (enzymatic assay (fluorogenic substrate cleavage)) EUB0002196a CASP2; assay type: functional; parameters: mode of action Inhibitor, recommended concentration 1 uM
Chain of Caspase-2 (P42575 170-325 limits assumed): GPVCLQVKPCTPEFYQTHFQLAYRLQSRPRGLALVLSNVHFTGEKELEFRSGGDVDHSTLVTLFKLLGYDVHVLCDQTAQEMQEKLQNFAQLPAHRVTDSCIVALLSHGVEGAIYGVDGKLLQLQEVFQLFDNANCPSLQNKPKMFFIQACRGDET
Chain of Caspase-2 (P42575 334-452 limits assumed): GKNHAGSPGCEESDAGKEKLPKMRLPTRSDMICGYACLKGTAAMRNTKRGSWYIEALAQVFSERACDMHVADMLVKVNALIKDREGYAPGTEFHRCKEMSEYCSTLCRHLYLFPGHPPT

Caspase-3 [5] = target: T2, Caspase-3 (Homo sapiens, UniProt P42574); assay: Affinity Biochemical interaction: (enzymatic assay (fluorogenic substrate cleavage)) EUB0002196a CASP3; assay type: functional; parameters: mode of action Inhibitor, recommended concentration 1 uM
T2 sequence (P42574 whole entry): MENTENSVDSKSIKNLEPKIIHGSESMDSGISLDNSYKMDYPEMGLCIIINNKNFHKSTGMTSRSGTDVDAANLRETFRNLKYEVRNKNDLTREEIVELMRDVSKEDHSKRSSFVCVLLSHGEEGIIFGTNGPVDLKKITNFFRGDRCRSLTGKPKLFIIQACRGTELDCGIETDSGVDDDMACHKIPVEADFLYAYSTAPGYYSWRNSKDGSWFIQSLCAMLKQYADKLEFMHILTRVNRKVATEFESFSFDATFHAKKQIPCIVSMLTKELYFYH

[6] = target: T3, Chromobox protein homolog 7 (Homo sapiens, UniProt O95931); assay: Affinity Biochemical interaction: (AlphaScreen) EUB0001090a CBX7; assay type: functional; parameters: mode of action Inhibitor, recommended concentration 1 uM
T3 sequence (O95931 whole entry): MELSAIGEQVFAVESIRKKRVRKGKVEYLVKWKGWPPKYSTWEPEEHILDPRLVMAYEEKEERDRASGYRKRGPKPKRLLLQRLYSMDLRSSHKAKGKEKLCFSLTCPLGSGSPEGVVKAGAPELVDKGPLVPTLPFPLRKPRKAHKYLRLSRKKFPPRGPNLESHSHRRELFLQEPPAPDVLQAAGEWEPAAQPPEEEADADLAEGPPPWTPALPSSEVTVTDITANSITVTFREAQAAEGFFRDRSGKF

[7] = target: T3, Chromobox protein homolog 7; assay: Affinity Biochemical interaction: (SPR) EUB0001090a CBX7; parameters: mode of action Inhibitor, recommended concentration 1 uM
[8] = target: T3, Chromobox protein homolog 7; assay: Affinity Biochemical interaction: (ITC) EUB0001090a CBX7; parameters: mode of action Inhibitor, recommended concentration 1 uM
[9] = target: Diacylglycerol lipase-beta (Homo sapiens) (UniProt Q8NCG7); assay: Affinity Biochemical interaction: (Gel-based competitive ABPP) EUB0002547a DAGLB; assay type: functional; parameters: recommended concentration 1 uM; conditions: Affinity Biochemical Source Knowledge https://pubs.acs.org/doi/epdf/10.1021/jm400898x
[10] = Affinity Biochemical interaction: (enzymatic assay (fluorogenic substrate cleavage)) EUB0002134a CAPN2
[11] = target: Monocarboxylate transporter 1 (Homo sapiens, UniProt P53985); assay: Affinity Biochemical interaction: (Displacement of radiolabelled [3H]-BAY-8002) EUB0001677b SLC16A1; parameters: mode of action Inhibitor, recommended concentration 1 uM
Chain of Monocarboxylate transporter 1 (P53985 whole entry): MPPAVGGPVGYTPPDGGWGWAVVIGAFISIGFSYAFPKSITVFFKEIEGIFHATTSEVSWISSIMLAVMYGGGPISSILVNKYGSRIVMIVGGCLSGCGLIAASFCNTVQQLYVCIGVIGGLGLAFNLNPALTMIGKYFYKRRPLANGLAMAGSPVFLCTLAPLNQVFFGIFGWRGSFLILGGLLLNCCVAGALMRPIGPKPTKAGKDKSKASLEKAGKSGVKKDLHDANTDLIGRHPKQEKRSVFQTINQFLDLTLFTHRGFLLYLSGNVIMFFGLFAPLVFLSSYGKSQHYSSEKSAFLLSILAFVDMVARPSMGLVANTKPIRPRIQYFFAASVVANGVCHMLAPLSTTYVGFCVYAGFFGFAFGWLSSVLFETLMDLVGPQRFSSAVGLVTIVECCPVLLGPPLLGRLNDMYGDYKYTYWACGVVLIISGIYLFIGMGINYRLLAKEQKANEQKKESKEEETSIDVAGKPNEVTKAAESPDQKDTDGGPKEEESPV

[12] = target: Histone-lysine N-methyltransferase SMYD3 (Homo sapiens, UniProt Q9H7B4); assay: Affinity Biochemical interaction: (inhibition of methylation activity, scintillation proximity assay utilizing [3 H]-SAM with specific product capture of biotin-tagged peptides on streptavidin SPA beads) EUB0002243aAD SMYD3; assay type: functional; parameters: mode of action Inhibitor, recommended concentration 1 uM
Chain of Histone-lysine N-methyltransferase SMYD3 (Q9H7B4 whole entry): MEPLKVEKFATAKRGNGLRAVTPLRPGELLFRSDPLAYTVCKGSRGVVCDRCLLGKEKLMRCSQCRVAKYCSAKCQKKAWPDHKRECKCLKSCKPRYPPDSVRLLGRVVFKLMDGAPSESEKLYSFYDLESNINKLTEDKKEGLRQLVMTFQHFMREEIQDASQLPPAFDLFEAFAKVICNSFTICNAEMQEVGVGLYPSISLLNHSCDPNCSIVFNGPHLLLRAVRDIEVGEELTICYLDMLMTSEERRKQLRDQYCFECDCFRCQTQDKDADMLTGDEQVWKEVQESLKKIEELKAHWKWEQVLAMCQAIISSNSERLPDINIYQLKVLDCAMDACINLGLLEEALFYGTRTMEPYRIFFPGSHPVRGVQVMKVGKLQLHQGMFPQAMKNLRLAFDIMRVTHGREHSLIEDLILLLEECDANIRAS

[13] = target: Protein arginine N-methyltransferase 6 (Homo sapiens, UniProt Q96LA8); assay: Affinity Biochemical interaction: (enzymatic assay (inhibition of methyl transfer from radiolabelled substrate [3H]SAM to peptide)) EUB0002245aCl PRMT6; assay type: functional; parameters: mode of action Inhibitor, recommended concentration 1 uM
Chain of Protein arginine N-methyltransferase 6 (Q96LA8 whole entry): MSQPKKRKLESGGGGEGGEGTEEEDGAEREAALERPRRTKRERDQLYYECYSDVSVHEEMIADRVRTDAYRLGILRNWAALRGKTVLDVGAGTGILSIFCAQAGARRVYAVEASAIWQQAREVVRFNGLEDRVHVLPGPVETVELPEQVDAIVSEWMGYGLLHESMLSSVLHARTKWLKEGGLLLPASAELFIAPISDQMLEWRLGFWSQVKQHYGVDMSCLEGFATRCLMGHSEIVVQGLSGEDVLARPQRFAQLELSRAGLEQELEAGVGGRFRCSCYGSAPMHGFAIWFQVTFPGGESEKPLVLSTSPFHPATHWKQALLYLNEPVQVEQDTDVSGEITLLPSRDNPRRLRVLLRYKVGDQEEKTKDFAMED

[14] = target: Histone-arginine methyltransferase CARM1 (Homo sapiens, UniProt Q86X55); assay: Affinity Biochemical interaction: (enzymatic assay (inhibition of methyl transfer from radiolabelled substrate [3H]SAM to peptide)) EUB0002245aCl CARM1; assay type: functional; parameters: mode of action Inhibitor, recommended concentration 1 uM
Chain of Histone-arginine methyltransferase CARM1 (Q86X55 whole entry): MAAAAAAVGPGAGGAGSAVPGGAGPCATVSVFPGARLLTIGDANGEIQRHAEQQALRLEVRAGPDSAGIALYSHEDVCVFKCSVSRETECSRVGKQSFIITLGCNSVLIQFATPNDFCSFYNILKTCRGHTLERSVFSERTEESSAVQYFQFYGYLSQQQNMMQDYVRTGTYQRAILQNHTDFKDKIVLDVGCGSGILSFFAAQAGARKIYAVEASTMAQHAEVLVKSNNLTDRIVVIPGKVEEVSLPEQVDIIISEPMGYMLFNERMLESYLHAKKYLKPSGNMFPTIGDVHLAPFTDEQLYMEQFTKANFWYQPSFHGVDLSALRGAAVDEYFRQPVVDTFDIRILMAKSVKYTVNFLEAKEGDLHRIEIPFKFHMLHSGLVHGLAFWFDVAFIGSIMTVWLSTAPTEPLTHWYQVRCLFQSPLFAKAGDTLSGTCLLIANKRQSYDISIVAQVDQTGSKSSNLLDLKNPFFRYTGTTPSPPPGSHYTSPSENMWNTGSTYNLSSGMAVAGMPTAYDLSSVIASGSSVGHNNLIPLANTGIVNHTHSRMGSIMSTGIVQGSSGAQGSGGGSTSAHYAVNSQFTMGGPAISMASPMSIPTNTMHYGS

[15] = target: Protein arginine N-methyltransferase 8 (Homo sapiens, UniProt Q9NR22); assay: Affinity Biochemical interaction: (enzymatic assay (inhibition of methyl transfer from radiolabelled substrate [3H]SAM to peptide)) EUB0002245aCl PRMT8; assay type: functional; parameters: mode of action Inhibitor, recommended concentration 1 uM
Chain of Protein arginine N-methyltransferase 8 (Q9NR22 whole entry): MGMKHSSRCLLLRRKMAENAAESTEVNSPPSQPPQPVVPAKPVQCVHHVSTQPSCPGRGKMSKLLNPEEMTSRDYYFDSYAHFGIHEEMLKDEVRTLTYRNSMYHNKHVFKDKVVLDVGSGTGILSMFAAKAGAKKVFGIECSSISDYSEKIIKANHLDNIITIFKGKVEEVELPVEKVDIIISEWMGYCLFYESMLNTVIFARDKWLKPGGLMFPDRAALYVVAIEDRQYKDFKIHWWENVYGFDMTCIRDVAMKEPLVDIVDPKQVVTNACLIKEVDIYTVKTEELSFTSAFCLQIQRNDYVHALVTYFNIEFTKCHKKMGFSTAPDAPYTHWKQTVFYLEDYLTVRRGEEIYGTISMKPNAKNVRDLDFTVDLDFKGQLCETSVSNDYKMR

Caspase-1 = Caspase-1 (Homo sapiens, UniProt P29466); assay: Affinity Biochemical interaction: (enzymatic assay (fluorogenic substrate cleavage)) EUB0002190aAD CASP1; assay type: functional; parameters: mode of action Inhibitor, recommended concentration 1 uM
Chain of Caspase-1 (P29466 120-297 limits assumed): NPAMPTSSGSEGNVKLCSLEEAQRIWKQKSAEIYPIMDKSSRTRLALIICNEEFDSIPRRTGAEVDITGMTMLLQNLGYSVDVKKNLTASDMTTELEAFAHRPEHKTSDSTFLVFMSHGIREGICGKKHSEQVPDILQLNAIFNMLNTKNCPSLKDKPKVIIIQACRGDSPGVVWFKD
Chain of Caspase-1 (P29466 317-404 limits assumed): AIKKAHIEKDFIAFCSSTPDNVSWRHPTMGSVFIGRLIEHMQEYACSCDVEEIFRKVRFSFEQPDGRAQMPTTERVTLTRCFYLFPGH

Caspase-6 = Caspase-6 (Homo sapiens, UniProt P55212); assay: Affinity Biochemical interaction: (enzymatic assay (fluorogenic substrate cleavage)) EUB0002190aAD CASP6; assay type: functional; parameters: mode of action Inhibitor, recommended concentration 1 uM
Chain of Caspase-6 (P55212 24-179 limits assumed): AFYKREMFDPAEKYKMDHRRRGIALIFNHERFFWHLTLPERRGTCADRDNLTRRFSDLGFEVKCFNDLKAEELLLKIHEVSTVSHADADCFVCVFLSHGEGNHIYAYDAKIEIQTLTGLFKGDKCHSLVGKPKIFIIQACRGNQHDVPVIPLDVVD
Chain of Caspase-6 (P55212 194-293 limits assumed): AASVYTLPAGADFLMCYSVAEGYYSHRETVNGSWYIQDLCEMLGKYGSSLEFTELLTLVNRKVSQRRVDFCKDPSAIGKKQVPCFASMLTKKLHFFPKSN

Caspase-3 [16] = target: T2, Caspase-3; assay: Affinity Biochemical interaction: (enzymatic assay (fluorogenic substrate cleavage)) EUB0002190aAD CASP3; assay type: functional; parameters: mode of action Inhibitor, recommended concentration 1 uM
Caspase-8 = Caspase-8 (Homo sapiens, UniProt Q14790); assay: Affinity Biochemical interaction: (enzymatic assay (fluorogenic substrate cleavage)) EUB0002190aAD CASP8; assay type: functional; parameters: mode of action Inhibitor, recommended concentration 1 uM
Chain of Caspase-8 (Q14790 217-374 limits assumed): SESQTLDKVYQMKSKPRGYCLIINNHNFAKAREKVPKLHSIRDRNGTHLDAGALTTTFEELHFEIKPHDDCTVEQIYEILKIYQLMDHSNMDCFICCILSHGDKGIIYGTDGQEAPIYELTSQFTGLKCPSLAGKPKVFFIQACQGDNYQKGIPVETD
Chain of Caspase-8 (Q14790 385-479 limits assumed): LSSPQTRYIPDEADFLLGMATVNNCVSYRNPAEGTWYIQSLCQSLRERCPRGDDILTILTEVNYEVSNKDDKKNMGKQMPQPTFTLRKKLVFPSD

Caspase-9 = Caspase-9 (Homo sapiens, UniProt P55211); assay: Affinity Biochemical interaction: (enzymatic assay (fluorogenic substrate cleavage)) EUB0002190aAD CASP9; assay type: functional; parameters: mode of action Inhibitor, recommended concentration 1 uM
Chain of Caspase-9 (P55211 1-315 limits assumed): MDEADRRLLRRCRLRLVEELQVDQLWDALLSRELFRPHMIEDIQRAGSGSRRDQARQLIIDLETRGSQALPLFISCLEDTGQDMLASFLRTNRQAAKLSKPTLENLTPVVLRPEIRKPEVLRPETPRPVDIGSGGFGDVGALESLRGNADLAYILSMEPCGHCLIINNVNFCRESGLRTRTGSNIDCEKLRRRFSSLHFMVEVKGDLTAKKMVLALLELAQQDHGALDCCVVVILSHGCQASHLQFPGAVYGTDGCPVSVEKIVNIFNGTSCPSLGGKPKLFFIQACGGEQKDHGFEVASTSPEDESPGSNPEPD
Chain of Caspase-9 (P55211 331-416 limits assumed): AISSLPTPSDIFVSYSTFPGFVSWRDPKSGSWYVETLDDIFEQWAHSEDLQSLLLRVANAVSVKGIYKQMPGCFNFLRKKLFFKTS

Caspase-3 [17] = target: T2, Caspase-3; assay: (§1) Affinity Biochemical interaction: (enzymatic assay (fluorogenic substrate cleavage)) EUB0002178aAD CASP3; assay type: functional; parameters: mode of action Inhibitor, recommended concentration 1 uM
Caspase-3 [18] = target: T2, Caspase-3; assay: as §1; assay type: functional; parameters: mode of action Inhibitor, recommended concentration 1 uM; remark: listed apart in the source

COC(=O)CC[C@H](NC(=O)[C@H](Cc1c[nH]c2ccccc12)NC(=O)OCc1ccccc1)C(=O)N[C@@H](Cc1cnc[nH]1)C(=O)N[C@@H](CC(=O)OC)C(=O)CF (Cbz-WE(OMe)HD(OMe)-CH2F)
IC50 (Caspase-5): 340 nM

CCNC(=O)NCCSC[C@H]1O[C@@H](n2cnc3c(N)ncnc32)[C@H](O)[C@@H]1O
IC50 [1]: 37000 nM
IC50 [2]: 25000 nM

Cc1nc(F)ccc1-c1cc(Cn2ccn(C)c2=N)cc(C(=O)NCc2ccc(Cl)c(Cl)c2)c1
Ki [3]: 0.106 nM
Ki [4]: < 0.001 nM

CC(=O)N[C@H](C(=O)N[C@@H](CC(=O)O)C(=O)N[C@H](C(=O)N[C@@H](C)C(=O)N[C@H](C=O)CC(=O)O)C(C)C)C(C)C (Ac-VDVAD-aldehyde)
Ki (Caspase-7): 7.5 nM
Ki (Caspase-2): 3.5 nM
Ki (Caspase-3 [5]): 1 nM

COC(=O)[C@H](CO)NC(=O)[C@H](CCCCN(C)C1CC2CCC1C2)NC(=O)[C@H](CC(C)C)NC(=O)[C@H](C)NC(=O)[C@H](Cc1ccccc1)NC(=O)c1ccc(C(C)(C)C)cc1 (stereo not given in full) ({Benzoyl(4-tBu)}-FAL[Lys(Me,2-norbornyl)]S-OMe)
IC50 [6]: 20 nM
Kd [7]: 53.8 nM
Kd [8]: 59 nM

CC(C)(C)OC(=O)NCCCCCN(CCc1ccccc1)C(=O)n1cc(-c2ccc(OC(F)(F)F)cc2)nn1
inhibition [9]: 73%

CCCC(NC(=O)C(CC(C)C)NC(=O)OCc1ccccc1)C(=O)C(=O)NCc1ccccn1 (racemic)
Ki [10]: 120 nM

O=C(Nc1ccccc1C(=O)O)c1cc(S(=O)(=O)c2ccccc2)ccc1Cl
IC50 [11]: 11 nM
Ki [11]: 5.02 nM

CN(C)CCCN(CC[C@H](N)C(=O)O)C[C@H]1O[C@@H](n2cnc3c(N)ncnc32)[C@H](O)[C@@H]1O
IC50 [12]: 130 nM
Ki [12]: 14 nM

CCOCC1(COCC)CCC(c2n[nH]cc2CN(C)CCNC)CC1
IC50 [13]: 4.7 nM
Ki [13]: 2.4 nM
IC50 [14]: 38 nM
Ki [14]: 19 nM
IC50 [15]: 3.9 nM
Ki [15]: 2 nM

CC(C)[C@H](NC(=O)[C@H](CCC(=O)O)NC(=O)[C@H](C)NC(=O)OC(C)(C)C)C(=O)N[C@H](C=O)CC(=O)O (Boc-AEVD-aldehyde)
Ki (Caspase-1): < 12 nM
Ki (Caspase-6): 52 nM
Ki (Caspase-3 [16]): 42 nM
Ki (Caspase-8): 1.6 nM
Ki (Caspase-9): 48 nM

CC[C@H](C)[C@H](NC(=O)[C@H](CCC(=O)O)NC(=O)[C@@H](NC(C)=O)C(C)C)C(=O)N[C@H](C=O)CC(=O)O (Ac-VEID-aldehyde)
IC50 (Caspase-3 [17]): 13.6 nM
IC50 (Caspase-3 [18]): 480 nM
